Results taken from US9120786B2, “Triazine carboxamides as sodium channel blockers” (priority 2013, dated 2015).

target: human Nav1.7 (Homo sapiens (Human), UniProt Q15858); experiment: FLIPR sodium dye assay (CoroNa Green) for sodium channel blocking activity in recombinant Nav1.7/HEK293 cells; format: cell-based
Sequence (Q15858 with tags, fused parts or gaps limits assumed): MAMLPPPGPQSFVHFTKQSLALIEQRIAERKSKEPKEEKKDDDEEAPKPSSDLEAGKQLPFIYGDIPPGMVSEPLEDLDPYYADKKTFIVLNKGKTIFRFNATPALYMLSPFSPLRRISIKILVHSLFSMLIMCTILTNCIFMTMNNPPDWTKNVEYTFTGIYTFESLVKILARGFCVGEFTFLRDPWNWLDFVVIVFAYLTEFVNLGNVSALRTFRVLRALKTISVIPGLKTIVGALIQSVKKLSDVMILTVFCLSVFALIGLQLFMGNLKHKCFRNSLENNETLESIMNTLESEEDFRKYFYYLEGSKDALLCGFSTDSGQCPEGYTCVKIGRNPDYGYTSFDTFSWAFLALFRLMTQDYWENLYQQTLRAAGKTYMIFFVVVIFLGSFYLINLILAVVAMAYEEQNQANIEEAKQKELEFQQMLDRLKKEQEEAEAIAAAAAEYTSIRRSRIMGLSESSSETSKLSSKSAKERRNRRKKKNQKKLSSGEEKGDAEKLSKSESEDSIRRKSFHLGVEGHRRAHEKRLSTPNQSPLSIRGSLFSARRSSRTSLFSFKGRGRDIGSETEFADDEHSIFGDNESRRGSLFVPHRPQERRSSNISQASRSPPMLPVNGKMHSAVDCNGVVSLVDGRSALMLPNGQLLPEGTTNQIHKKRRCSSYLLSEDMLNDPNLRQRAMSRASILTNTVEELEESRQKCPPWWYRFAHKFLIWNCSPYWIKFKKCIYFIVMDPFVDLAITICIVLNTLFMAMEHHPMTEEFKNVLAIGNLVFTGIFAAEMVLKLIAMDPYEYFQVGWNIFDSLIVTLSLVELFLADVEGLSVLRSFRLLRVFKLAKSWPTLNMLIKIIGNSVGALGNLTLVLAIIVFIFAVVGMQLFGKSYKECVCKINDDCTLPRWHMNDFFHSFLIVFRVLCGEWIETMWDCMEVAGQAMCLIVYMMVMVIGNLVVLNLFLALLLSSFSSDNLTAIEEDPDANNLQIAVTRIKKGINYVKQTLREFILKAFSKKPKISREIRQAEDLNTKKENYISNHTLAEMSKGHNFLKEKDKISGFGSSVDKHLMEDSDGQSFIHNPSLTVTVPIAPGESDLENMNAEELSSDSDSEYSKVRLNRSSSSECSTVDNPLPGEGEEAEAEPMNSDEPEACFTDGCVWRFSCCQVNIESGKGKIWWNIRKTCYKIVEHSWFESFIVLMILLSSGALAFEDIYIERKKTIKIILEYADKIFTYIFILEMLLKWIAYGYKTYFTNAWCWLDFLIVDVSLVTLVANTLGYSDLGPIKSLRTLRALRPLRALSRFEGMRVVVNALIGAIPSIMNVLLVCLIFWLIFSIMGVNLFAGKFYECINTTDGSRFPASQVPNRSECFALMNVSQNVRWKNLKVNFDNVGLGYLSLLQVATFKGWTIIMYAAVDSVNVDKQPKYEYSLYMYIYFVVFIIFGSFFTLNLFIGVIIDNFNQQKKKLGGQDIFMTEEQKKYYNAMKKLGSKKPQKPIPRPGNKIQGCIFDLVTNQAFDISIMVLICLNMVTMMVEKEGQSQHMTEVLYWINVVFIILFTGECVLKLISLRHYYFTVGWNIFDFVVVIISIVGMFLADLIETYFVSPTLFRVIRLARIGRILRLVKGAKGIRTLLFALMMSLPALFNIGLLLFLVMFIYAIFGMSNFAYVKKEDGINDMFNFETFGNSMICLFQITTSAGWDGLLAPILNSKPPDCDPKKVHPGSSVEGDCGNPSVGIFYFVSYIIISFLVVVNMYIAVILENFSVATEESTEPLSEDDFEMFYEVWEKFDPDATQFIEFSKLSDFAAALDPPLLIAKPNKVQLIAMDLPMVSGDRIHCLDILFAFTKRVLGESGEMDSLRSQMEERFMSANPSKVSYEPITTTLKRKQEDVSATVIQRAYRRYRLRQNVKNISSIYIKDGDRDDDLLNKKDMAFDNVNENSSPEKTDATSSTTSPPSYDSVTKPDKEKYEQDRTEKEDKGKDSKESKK

SMILES | IC50
NC(=O)c1nc(N)nc(N2CC(Oc3ccc(C(F)(F)F)cn3)C2)n1 [Compound 11, 4-amino-6-(3-((5-(trifluoromethyl)pyridin-2-yl)oxy)azetidin-1-yl)-1,3,5-triazine-2-carboxamide] | > 20 µM
N#Cc1nc(N[C@H]2CCNC2=O)nc(-c2ccc(Oc3ccc(OC(F)(F)F)cc3)cc2)n1 [Compound 1, (S)-4-((2-oxopyrrolidin-3-yl)amino)-6-(4-(4-(trifluoromethoxy)phenoxy)phenyl)-1,3,5-triazine-2-carbonitrile] | 2.25 ± 0.37 µM
NC(=O)c1nc(N)nc(-c2ccc(Oc3ccc(C(F)(F)F)cn3)cc2)n1 [Compound 13, 4-amino-6-(4-((5-(trifluoromethyl)pyridin-2-yl)oxy)phenyl)-1,3,5-triazine-2-carboxamide] | > 20 µM
CCN(c1nc(C(N)=O)nc(-c2ccc(Oc3ccc(OC(F)(F)F)cc3)cc2)n1)C(C)C [Compound 4, 4-(ethyl(isopropyl)amino)-6-(4-(4-(trifluoromethoxy)phenoxy)phenyl)-1,3,5-triazine-2-carboxamide] | > 20 µM
NC(=O)c1nc(-c2ccc(Oc3ccc(OC(F)(F)F)cc3)cc2)nc(N2CCOCC2)n1 [Compound 9, 4-morpholino-6-(4-(4-(trifluoromethoxy)phenoxy)phenyl)-1,3,5-triazine-2-carboxamide] | 0.596 ± 0.102 µM
NC(=O)c1nc(N[C@H]2CCNC2=O)nc(-c2ccc(Oc3ccc(OC(F)(F)F)cc3)cc2)n1 [Compound 2, (S)-4-((2-oxopyrrolidin-3-yl)amino)-6-(4-(4-(trifluoromethoxy)phenoxy)phenyl)-1,3,5-triazine-2-carboxamide] | 0.326 ± 0.116 µM
CCN(c1nc(C(N)=O)nc(-c2ccc(Oc3ccc(C(F)(F)F)cn3)cc2)n1)C(C)C [Compound 5, 4-(ethyl(isopropyl)amino)-6-(4-((5-(trifluoromethyl)pyridin-2-yl)oxy)phenyl)-1,3,5-triazine-2-carboxamide] | 0.645 ± 0.14 µM
N#Cc1nc(-c2ccc(Oc3ccc(C(F)(F)F)cn3)cc2)nc(N2CCOCC2)n1 [Compound 8, 4-morpholino-6-(4-((5-(trifluoromethyl)pyridin-2-yl)oxy)phenyl)-1,3,5-triazine-2-carbonitrile] | 8.09 ± 0.959 µM
NC(=O)c1nc(N[C@H]2CCNC2=O)nc(N2CC(Oc3ccc(C(F)(F)F)cn3)C2)n1 [Compound 14, (S)-4-((2-oxopyrrolidin-3-yl)amino)-6-(3-((5-(trifluoromethyl)pyridin-2-yl)oxy)azetidin-1-yl)-1,3,5-triazine-2-carboxamide] | > 20 µM
NC(=O)c1nc(NCCO)nc(-c2ccc(Oc3ccc(C(F)(F)F)cn3)cc2)n1 [Compound 12, 4-((2-hydroxyethyl)amino)-6-(4-((5-(trifluoromethyl)pyridin-2-yl)oxy)phenyl)-1,3,5-triazine-2-carboxamide] | 0.243 ± 0.125 µM
NC(=O)c1nc(-c2ccc(Oc3ccc(C(F)(F)F)cn3)cc2)nc(N2CCOCC2)n1 [Compound 10, 4-morpholino-6-(4-((5-(trifluoromethyl)pyridin-2-yl)oxy)phenyl)-1,3,5-triazine-2-carboxamide] | 0.353 ± 0.1 µM
